According to patent US20100063085A1, “METHOD OF TREATING LEARNING IMPAIRMENT IN DOWN'S SYNDROME SUBJECTS” (University Court of The University of Dundee, priority 2008, published 2010):
Read-outs that look alike come from different tables or passages of the source.

Experiments:
Assay in all cases: biochemical
Aurora B = Aurora B (Homo sapiens, UniProt Q96GD4); conditions: read-out: Aurora B activity as percentage of control without inhibitor
Description: (§1) All assays (25.5 μl) were carried out at room temperature (21° C.) and were linear with respect to time and enzyme concentrations under the conditions used. Assays were performed for 30 minutes except assays for LCK and PKB which were performed for 15 minutes using Multidrop Micro reagent dispensers (Thermo Electron Corporation, Waltham, Mass. 02454, USA) in a 96-well format. The concentration of […] [γ-^33P] ATP (800 cpm/pmol) in the assays was one of three concentrations (5, 20 or 50 μM) in order to be at or below Km for ATP for the enzyme. Assays were initiated with MgATP and stopped by addition of 5 μl of 0.5M orthophosphoric acid. Assays were then harvested onto P81 filterplates using a unifilter harvester (PerkinElmer, Boston, Mass. 02118, USA), with a wash buffer of 50 mM orthophosphoric acid. Filterplates were then air dried overnight. 10 μl of Microscint O was added per well prior to counting for radioactivity.
(§2) The following kinases were assayed against the substrates indicated. Aurora B was assayed against the substrate peptide […] (300 μM), ERK8 and MST-2 were both assayed against MBP (0.33 mg/ml). IKKβ was assayed against the substrate peptide […] (300 μM), JNK3 was assayed against 3 μM ATF2[19-96]. MAPKAP-K3 and PKD1 were both assayed against […] (30 μM), MARK3 was assayed against CHKtide ([…]) substrate peptide (300 μM). MNK1 and MNK2 were both assayed against eIF4E protein (0.5 mg/ml). NEK7 was assayed against […] (300 μM), PIM2 was assayed against […] (300 μM), ΔPH PKBβ-S474D was assayed against Crosstide (30 μM), PLK1 was assayed against […] (300 μM). PRK2 was assayed against Long S6 peptide, […] (30 μM), RSK2 was assayed against […] (30 μM), SRC was assayed against cdc2 peptide, […], (300 μM) and SRPK1 was assayed against peptide […] (300 μM). All enzymes were diluted in 50 mM Tris/HCl pH 7.5, 0.1 mM EGTA, 1 mg/ml BSA, 0.1% β-mercaptoethanol buffer and assayed in an incubation containing 50 mM Tris/HCl pH7.5, 0.1 mM EGTA, 0.1% β-mercaptoethanol, CAMK-1 (5-20 mU) diluted in 50 mM Tris/HCl pH 7.5, 0.1 mM EGTA, 1 mg/ml BSA, 0.1% β-mercaptoethanol is assayed against substrate peptide […] in an incubation containing 50 mM Tris/HCl pH 7.5, 0.1 mM EGTA, 0.5 mM CaCl2, 0.3 μM calmodulin, 0.1% β-mereaptoethanol, 300 μM substrate peptide, 10 mM magnesium acetate and 0.05 mM [^33P-γ-ATP] (500-1000 cpm/pmole). EF2K (5-20 mU) diluted in 50 mM Hepes pH 6.6, 0.1% β-mercaptoethanol, 1 mg/ml BSA is assayed against a substrate peptide […] in an incubation containing 50 mM Hepes pH 6.6, 0.2 mM CaCl2, 0.3 μM Calmodulin, 0.05% b-mercaptoethanol, 300 μM substrate peptide, 10 mM magnesium acetate and 0.05 mM [^33P-γ-ATP] (500-1000 cpm/pmole).

IKKb = target: T1, IKKb (Homo sapiens, UniProt O14920); conditions: read-out: IKKb activity as percentage of control without inhibitor
T1 sequence (O14920 1-756): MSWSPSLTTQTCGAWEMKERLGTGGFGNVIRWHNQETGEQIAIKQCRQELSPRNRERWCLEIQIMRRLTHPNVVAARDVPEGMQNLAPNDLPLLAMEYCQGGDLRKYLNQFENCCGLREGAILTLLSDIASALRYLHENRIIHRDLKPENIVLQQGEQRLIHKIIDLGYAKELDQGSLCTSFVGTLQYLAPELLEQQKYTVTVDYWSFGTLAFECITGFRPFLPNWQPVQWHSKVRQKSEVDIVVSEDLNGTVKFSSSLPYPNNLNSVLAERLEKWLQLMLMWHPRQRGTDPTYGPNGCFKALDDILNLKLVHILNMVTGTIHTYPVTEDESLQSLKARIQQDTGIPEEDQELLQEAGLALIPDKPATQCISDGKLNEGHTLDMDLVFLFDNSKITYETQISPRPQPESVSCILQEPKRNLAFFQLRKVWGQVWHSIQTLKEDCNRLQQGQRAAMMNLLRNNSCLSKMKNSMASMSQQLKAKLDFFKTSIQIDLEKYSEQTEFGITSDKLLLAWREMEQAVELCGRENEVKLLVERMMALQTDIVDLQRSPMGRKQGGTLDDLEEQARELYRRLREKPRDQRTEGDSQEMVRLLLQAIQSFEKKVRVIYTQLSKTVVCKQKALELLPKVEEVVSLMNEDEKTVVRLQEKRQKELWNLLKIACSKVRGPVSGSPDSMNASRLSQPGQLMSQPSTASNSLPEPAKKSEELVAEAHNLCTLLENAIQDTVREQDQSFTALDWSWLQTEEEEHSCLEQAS
Description: as §1, §2

MNK1 = MNK1 (Homo sapiens, UniProt Q9BUB5); conditions: read-out: MNK1 activity as percentage of control without inhibitor
Description: as §1, §2

MNK2 = MNK2 (Homo sapiens, UniProt Q9HBH9); conditions: read-out: MNK2 activity as percentage of control without inhibitor
Description: as §1, §2

MST2 = target: T2, MST2 (Homo sapiens, UniProt Q13188); conditions: read-out: MST2 activity as percentage of control without inhibitor
T2 sequence (Q13188 1-491): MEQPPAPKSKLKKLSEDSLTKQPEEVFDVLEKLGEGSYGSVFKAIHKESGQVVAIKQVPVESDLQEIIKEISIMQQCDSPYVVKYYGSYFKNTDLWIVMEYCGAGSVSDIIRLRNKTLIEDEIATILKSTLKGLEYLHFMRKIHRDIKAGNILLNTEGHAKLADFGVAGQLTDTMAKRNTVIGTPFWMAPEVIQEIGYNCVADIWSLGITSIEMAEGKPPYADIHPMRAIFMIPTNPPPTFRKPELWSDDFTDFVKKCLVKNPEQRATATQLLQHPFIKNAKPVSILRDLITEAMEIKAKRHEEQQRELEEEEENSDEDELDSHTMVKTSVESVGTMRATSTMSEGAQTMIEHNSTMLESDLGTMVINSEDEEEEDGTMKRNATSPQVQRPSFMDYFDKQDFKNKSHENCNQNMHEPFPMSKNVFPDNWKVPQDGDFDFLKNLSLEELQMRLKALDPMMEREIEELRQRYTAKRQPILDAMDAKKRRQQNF
Description: as §1, §2

Chain of MNK1 (Q9BUB5 whole entry, species assumed): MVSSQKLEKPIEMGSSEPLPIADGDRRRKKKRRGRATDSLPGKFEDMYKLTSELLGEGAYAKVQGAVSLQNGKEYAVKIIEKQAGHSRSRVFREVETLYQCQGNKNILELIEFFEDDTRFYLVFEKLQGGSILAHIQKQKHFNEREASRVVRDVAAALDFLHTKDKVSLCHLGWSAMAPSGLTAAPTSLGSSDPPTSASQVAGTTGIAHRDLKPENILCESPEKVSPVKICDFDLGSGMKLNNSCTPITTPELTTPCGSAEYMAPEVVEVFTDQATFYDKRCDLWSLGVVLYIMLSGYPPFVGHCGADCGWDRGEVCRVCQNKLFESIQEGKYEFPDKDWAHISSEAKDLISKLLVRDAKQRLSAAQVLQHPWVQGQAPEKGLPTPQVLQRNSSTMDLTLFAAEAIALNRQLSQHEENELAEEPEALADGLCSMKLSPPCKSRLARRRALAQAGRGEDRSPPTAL
Chain of MNK2 (Q9HBH9 whole entry, species assumed): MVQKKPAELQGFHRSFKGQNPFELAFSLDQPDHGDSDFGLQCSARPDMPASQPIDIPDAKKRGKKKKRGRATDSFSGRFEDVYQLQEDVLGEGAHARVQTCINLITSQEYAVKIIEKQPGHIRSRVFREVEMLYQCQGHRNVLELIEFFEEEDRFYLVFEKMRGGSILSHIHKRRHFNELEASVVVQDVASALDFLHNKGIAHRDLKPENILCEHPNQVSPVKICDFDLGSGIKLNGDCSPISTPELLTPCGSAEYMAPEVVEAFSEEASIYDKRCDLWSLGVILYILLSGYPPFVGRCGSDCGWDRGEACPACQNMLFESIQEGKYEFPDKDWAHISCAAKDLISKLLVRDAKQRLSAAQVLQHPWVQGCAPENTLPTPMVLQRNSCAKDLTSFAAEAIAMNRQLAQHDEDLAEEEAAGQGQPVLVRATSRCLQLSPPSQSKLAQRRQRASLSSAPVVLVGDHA
Chain of Aurora B (Q96GD4 whole entry): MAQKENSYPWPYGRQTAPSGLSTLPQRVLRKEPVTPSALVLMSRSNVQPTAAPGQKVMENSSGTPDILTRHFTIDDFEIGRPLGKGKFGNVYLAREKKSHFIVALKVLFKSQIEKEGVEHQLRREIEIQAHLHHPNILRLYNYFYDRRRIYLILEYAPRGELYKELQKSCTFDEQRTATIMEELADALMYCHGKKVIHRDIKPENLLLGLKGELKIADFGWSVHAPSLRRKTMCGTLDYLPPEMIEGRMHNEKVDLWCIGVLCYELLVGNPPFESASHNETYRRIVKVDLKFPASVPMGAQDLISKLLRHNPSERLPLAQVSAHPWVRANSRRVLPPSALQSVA

SMILES	remaining activity at 1 µM (Aurora B; inhibitor 1 μM) [%]	remaining activity at 10 µM (Aurora B; inhibitor 10 μM) [%]	remaining activity at 1 µM (IKKb; inhibitor 1 μM) [%]	remaining activity at 10 µM (IKKb; inhibitor 10 μM) [%]	remaining activity at 1 µM (MNK1; inhibitor 1 μM) [%]	remaining activity at 10 µM (MNK1; inhibitor 10 μM) [%]	remaining activity at 1 µM (MNK2; inhibitor 1 μM) [%]	remaining activity at 10 µM (MNK2; inhibitor 10 μM) [%]	remaining activity at 1 µM (MST2; inhibitor 1 μM) [%]	remaining activity at 10 µM (MST2; inhibitor 10 μM) [%]	remaining activity at 1 µM (Aurora B) [%]	remaining activity at 10 µM (Aurora B) [%]	remaining activity at 1 µM (IKKb) [%]	remaining activity at 10 µM (IKKb) [%]	remaining activity at 1 µM (MNK1) [%]	remaining activity at 10 µM (MNK1) [%]	remaining activity at 1 µM (MNK2) [%]	remaining activity at 10 µM (MNK2) [%]	remaining activity at 1 µM (MST2) [%]	remaining activity at 10 µM (MST2) [%]
COc1ccc2c3c([nH]c2c1)C(C)=NCC3 [Harmaline]	98	112	78	82	89	82	88	77	98	105	–	–	–	–	–	–	–	–	–	–
CC1=NCCc2c1[nH]c1cc(O)ccc21 [Harmalol]	110	83	93	69	80	48	97	71	85	74	–	–	–	–	–	–	–	–	–	–
COc1ccc2c(c1)[nH]c1c(C)nccc12 [Harmine]	–	–	–	–	–	–	–	–	–	–	100	102	97	73	84	52	84	98	91	81
